Changes are numbered by the printed parent chain. In names and notes the source's numbering stands.
Assays:
HDAC = assay: Histone deacetylase (HDAC) assay in SMC lysates with [3H]-acetylated histone H4 peptide; format: biochemical, human
Protocol: HITC6 SMC's were stably transduced with pQXCIP-PURO or pQXCIP-PBEF-PURO and HDAC activity determined in cell lysates (25 μg of protein), using [^3H]histone H4 peptide as the substrate. The reactions were quenched by acid hydrolysis and catalytically released [^3H]-acetate was extracted in ethyl acetate.
Histone Deacetylase (HDAC) Assays were employed. Histone H4 peptide (Upstate) was labeled with [^3H]-acetyl Coenzyme A (ICN) using PCAF histone acetylase. Cell lysates were harvested using Passive Lysis Buffer (Promega) and 25 μg of protein was incubated at 37° C. for 6 hours with 50,000 cpm of [^3H]-acetyl histone and 1 mM PMSF in HDAC Assay Buffer (Upstate). Released [^3H]-acetate was extracted with ethyl acetate (31) and counted on a Beckman LS3801 scintillation counter.

PBEF = assay: Knockdown of PBEF by RNA interference: PBEF mRNA (real-time RT-PCR) and protein (Western blot); format: cell-based, human; conditions: HITC6 SMCs, retroviral hairpin siRNA
Protocol: (§1) Western Blot Analyses were employed to assay marker expression. Expression of PBEF and SMC differentiation markers was assessed by Western blot analysis with chemiluminescence detection, as described (29). Equal amounts of protein were resolved on 12% (for PBEF and α-tubulin), 9% (for smoothelin A and smoothelin B) and 6% (for caldesmon and vinculin-metavinculin) SDS-polyacrylamide gels and transferred PVDF membranes (Immobilon, Millipore). PBEF was detected using a polyclonal rabbit antibody against human PBEF (1857, 1:5000, kindly provided by Amgen). Monoclonal antibodies were used to detect heavy (h)-caldesmon (clone hHCD, 1:1000, Sigma), smoothelin isoforms A and B (clone MAB3242, 1:500, Chemicon), vinculin-metavinculin (clone VIN-11-5, 1:2000, Sigma), and α-tubulin (clone B-5-1-2; 1:16000, Sigma).
(§2) Knockdown of PBEF by RNA Interference was evaluated with a viral vector. PBEF knockdown was accomplished by infecting human SMC's with retrovirus containing sequences encoding hairpin siRNA fragments. Complementary oligodeoxynucleotides were synthesized, annealed, and inserted between the BamH1 and EcoR1 sites of the retroviral expression vector pSIREN-RetroQ. Three different targeting sequences were used, each consisting of 19 nucleotides starting at nucleotides 147, 384, and […] of the PBEF coding sequence (siRNA147 5′-GGAAGGTGAAATATGAGGA-3′; siRNA384 5′-ATGTTCTCTTCACGGTGGA-3′; siRNA1278 5′-AGGGCCGATTATCTTTACA-3′). Each sequence was separated by a 9-nucleotide noncomplementary spacer from the reverse complement of the same 19-nucleotide sequence. Blast search confirmed that only the PBEF gene was targeted. Control inserts contained the gene-specific 19-nucleotide sequence and hairpin loop sequence but not the antisense component. Infection of SMCs was performed as described above and cells were selected using 3 μg/ml puromycin for 48 hours.
Real-time RT-PCR was used to analyze nucleic acid evidence. RNA was harvested using RNeasy mini-column and reagents (Qiagen) and subjected to DNaseI treatment. Probe (5′-CAGTTGCTGATCCCA-3′) and flanking primers (5′-primer 5′-[…]-3′; 3′-primer 5′-[…]-3′) for Taqman real-time RT-PCR for PBEF were designed using Primer Express software (Applied Biosystems). Reactions were performed using an ABI-Prism 7900 Sequence Detection System (Applied Biosystems). Optimum signal was obtained with concentrations of 200 nM, 300 nM and 50 nM for the probe, 5′ primer, and 3′ primer, respectively. Standard curves were generated using RNA derived from human aortic SMCs, enabling correlation of the determined threshold cycle to transcript abundance. GAPDH transcript abundance was used as an endogenous RNA control (Assays on Demand Hs9999905, Applied Biosystems) to which PBEF transcript abundance was normalized.

HITC6 SMC's = assay: Survival, morphology and h-caldesmon expression of PBEF-knockdown SMCs; format: cell-based, human; conditions: for SMC morphology / SMC survival: retroviral hairpin siRNA
Protocol: as §1, §2
Microscopy and Image Analysis were used to measure cell robustness and function. Cell images were collected using a Zeiss Axiovert S100 microscope (Carl Zeiss Microimaging Inc.) equipped with Hoffman Modulation Contrast Plan objectives and TCT condenser (Modulation Optics Inc.), cooled QICAM 12-bit Mono Fast 1394 camera (QImaging Inc.) and Northern Eclipse image analysis software (Empix Imaging Inc.). Histology images were acquired with an Olympus BX50 microscope with a BX-FLA illuminator, UPlanF1 objective lenses (Olympus Optical Co. Ltd.), cooled Retiga EXi Mono Fast 1394 camera (QImaging Inc.) and Northern Eclipse image analysis software. Linear image processing was done using Photoshop CS (Adobe Systems Inc.).

HITC6 SMCs [1] = assay: Senescence-associated beta-galactosidase activity / senescence-free survival; format: cell-based, human; conditions: 37th subculture
Protocol: Senescence-associated β-Galatosidase Activity Assay. SMCs on glass coverslips at approximately 70% confluence were fixed in 2% formaldehyde/0.2% glutaraldehyde in PBS for 3 minutes and incubated with X-gal-containing reaction mixture, as previously described (Dimri, 1995). Washed cells were stained with Hoechst 33258 (2.5 μg/ml) and the proportion of senescence-associated β-galactosidase (SA β-Gal)-positive cells quantified from 10 microscope fields of view (Olympus BX51, ×20 objective, approximately 1200 cells). Senescence-free survival was determined using Kaplan-Meier analysis of survival vs. replicative age.
Senescence-associated Beta-galactosidase Activity. Senescence-associated beta-galactosidase (SA-β-gal) activity was determined as previously described (Dimri et al, 1995). Briefly, SMCs were fixed in PBS containing 2% formaldehyde/0.2% glutaraldehyde for 3 min at room temperature. Fixed cells were then incubated for 4-6 h at 37° C. with SA-β-gal stain solution containing 150 mM NaCl, 2 mM MgCl, 40 mM citrate, 5 mM potassium ferrocyanide, 5 mM potassium ferricyanide, and 1 mg/ml of 5-bromo-4-chloro-3-indolyl-β-D-galactopyranoside (X-gal) (Invitrogen, Carlsbad, Calif., USA), at pH 6.0. SMCs were counterstained with 2.5 μg/ml Hoechst 33258 to detect cell nuclei. The proportion of SA-β-gal activity positive cells was quantified using light and fluorescence microscopy (Olympus BX51, Center Valley, Pa., USA).

HITC6 SMCs [2] = assay: Replicative lifespan (cumulative population doublings) of HITC6 SMCs; format: cell-based, human
Protocol: To quantify replication, cells were plated at 4500 cells/cm^2 and growth medium with 10% FBS was changed every two days until cells reached 90-95% confluence. Harvested cells were counted from triplicate plates and the number of population doublings was calculated based on: [log10(number of cells harvested)−log10(number of cells seeded)]/[…] (Fukuhara, 2005). Population growth curves were compared using both nonlinear regression and two-way analysis of variance.
Cell Culture. Experiments were performed using primary human SMCs and the HITC6 clonal SMC line, both derived from segments of human internal thoracic artery (Li et al., 1999; Li et al., 2001). SMCs were maintained at 37° C. with 5% CO2 and cultured in Medium 199 (Invitrogen, Carlsbad, Calif., USA) supplemented with 25 mM HEPES, 10% FBS, 1% penicillin/streptomycin, and 1% L-glutamine. Phoenix cells (distributed by ATCC, Manassas, Va., USA) were maintained at 37° C. with 5% CO2 and cultured in Dulbecco's modified Eagle's medium (Invitrogen, Carlsbad, Calif., USA). To quantify replication, cells were seeded at a density of 4500 cells/cm2 and population doublings were calculated using the following formula: […].

[3] = tested on: primary human vascular SMCs; assay: Replicative lifespan (cumulative population doublings) of primary SMCs; format: cell-based; conditions: SIRT1-overexpressing primary adult SMCs; p<0.01

CC(NC(=O)c1ccccc1/N=C/c1c(O)ccc2ccccc12)c1ccccc1 (centres unmarked) [Sirtinol, sirtinol]
HDAC activity in PBEF-overexpressing SMC's (HDAC; 50 μM sirtinol): significantly inhibited | HDAC activity in control SMC's (HDAC; 50 μM sirtinol): more modest inhibition

siRNA1248: retrovirally expressed hairpin siRNA to PBEF, 19 nt from nucleotide 1248: 5'-AGGGCCGATTATCTTTACA-3' (hairpin with spacer and reverse complement)
PBEF mRNA (real-time RT-PCR) vs non-silencing RNA control (PBEF): significant decrease | PBEF protein (PBEF): significant suppression | h-caldesmon expression (Western blot) (HITC6 SMC's): reduced expression | SMC morphology (HITC6 SMC's): short, truncated morphology | SMC survival (HITC6 SMC's): survived poorly

siRNA384: retrovirally expressed hairpin siRNA to PBEF, 19 nt from nucleotide 384: 5'-ATGTTCTCTTCACGGTGGA-3' (hairpin with spacer and reverse complement)
PBEF mRNA (real-time RT-PCR) vs non-silencing RNA control (PBEF): did not manifest a reduction | PBEF protein (PBEF): did not manifest a reduction | SMC morphology (HITC6 SMC's): maintained an elongated morphology

siRNA147: retrovirally expressed hairpin siRNA to PBEF, 19 nt from nucleotide 147: 5'-GGAAGGTGAAATATGAGGA-3' (hairpin with spacer and reverse complement)
PBEF mRNA (real-time RT-PCR) vs non-silencing RNA control (PBEF): significant decrease | PBEF protein (PBEF): significant suppression | SMC morphology (HITC6 SMC's): short, truncated morphology | SMC survival (HITC6 SMC's): survived poorly

trichostatin A
HDAC activity in both control and PBEF-overexpressing SMC's (HDAC; 40 nM trichostatin A): substantially inhibited

B1: SIRT1 H363Y: dominant-negative form of SIRT1 (H363Y), retrovirally transduced (protein, UniProt Q96EB6 2-747, looked up, variant H363Y)
NAD-dependent protein …: ADEAALALQPGGSPSAAGADREAASSPAGEPLRKRPRRDGPGLERSPGEPGGAAPEREVPAAARGCPGAAAAALWREAEAEAAAAGGEQEAQATAAAGEGDNGPGLQGPSREPPLADNLYDEDDDDEGEEEEEAAAAAIGYRDNLLFGDEIITNGFHSCESDEEDRASHASSSDWTPRPRIGPYTFVQQHLMIGTDPRTILKDLLPETIPPPELDDMTLWQIVINILSEPPKRKKRKDINTIEDAVKLLQECKKIIVLTGAGVSVSCGIPDFRSRDGIYARLAVDFPDLPDPQAMFDIEYFRKDPRPFFKFAKEIYPGQFQPSLCHKFIALSDKEGKLLRNYTQNIDTLEQVAGIQRIIQCYGSFATASCLICKYKVDCEAVRGDIFNQVVPRCPRCPADEPLAIMKPEIVFFGENLPEQFHRAMKYDKDEVDLLIVIGSSLKVRPVALIPSSIPHEVPQILINREPLPHLHFDVELLGDCDVIINELCHRLGGEYAKLCCNPVKLSEITEKPPRTQKELAYLSELPPTPLHVSEDSSSPERTSPPDSSVIVTLLDQAAKSNDDLDVSESKGCMEEKPQEVQTSRNVESIAEQMENPDLKNVGSSTGEKNERTSVAGTVRKCWPNRVAKEQISRRLDGNQYLFLPPNRYIFHGAEVYSDSEDDVLSSSSCGSNSDSGTCQSPSLEEPMEDESEIEEFYNGLEDEPDVPERAGGAGFGTDGDDQEAINEAISVKQEVTDMNYPSNKS
relative increase in senescence (HITC6 SMCs [1]; dominant-negative SIRT1 co-expressed in PBEF-overexpressing SMCs): 55±12% | relative increase in senescence (HITC6 SMCs [1]; vector-infected SMCs expressing SIRT1 H363Y): 15±10% | additional population doublings conferred by Nampt (HITC6 SMCs [2]; SIRT1 H363Y allele co-expressed with Nampt, p=0.003): 0.3±0.3 population doublings

B2: SIRT1: NAD+-dependent deacetylase; tested by retroviral overexpression of human SIRT1 cDNA in SMCs (protein, UniProt Q96EB6 2-747, looked up)
NAD-dependent protein …: B1 NAD-dependent protein … with Y362H
increase in cumulative population doublings vs vector infected SMCs [3]: 1.30±0.93 fold | increase in number of population doublings (HITC6 SMCs [2]; SIRT1-SMCs, clonal longer-lived human SMC line, p<0.05): 1.17±0.03 fold

From patent publication US20080318892A1, “METHODS AND FORMULATIONS FOR PROTECTING CELLS, AND FOR TREATING DISEASES AND CONDITIONS BY OPTIMIZING THE INTRACELLULAR CONCENTRATION OF NAD” (priority 2007, published 2008)
